What all share (format): in vivo, rat
For one data set, the system named is PCS rats. Briefly: Morris water maze memory test, PCS rats (Example 9). As to the method:
(§1) Male Wistar rats (220-240 g) were anesthetized with isoflurane, and an end-to side porta-caval anastomosis was performed as described by Lee and Fisher (Surgery, 1961, 50, 668-672).
(§2) Rats that were subjected to the porta-caval anastomosis procedure are herein referred to as “PCS rats”.
(§3) 3α-ethynyl-3β-hydroxyandrostan-17-one oxime in sesame oil was administered by subcutaneous injections in the back of the rats, once daily. Two different sets of experiments were performed in hyperammonemic rats. In the first set four groups of rats were used: 1) control rats injected with vehicle; 2) hyperammonemic rats injected with vehicle; 3) control rats injected with 20 mg/Kg of 3α-ethynyl-3β-hydroxyandrostan-17-one oxime and 4) hyperammonemic rats injected with 20 mg/Kg of 3α-ethynyl-3β-hydroxyandrostan-17-one oxime. […]
The test was carried out as described by Monfort et al. (European Journal of Neuroscience, 2007, 25, 2103-2111) using a circular pool (160 cm diameter, 40 cm height) arbitrarily divided into four quadrants. […] The time needed to find the hidden platform was recorded manually and used as a measure of learning of the task.
Spatial memory was assessed 24 hours later by removing the platform and measuring the time spent by the rat in the quadrant where the platform was.

Data set [1] concerns blood ammonia. The data set can be described thus: Blood ammonia, PCS rats (Example 12). As to the method: as §1, §2
(§4) 3α-ethynyl-3β-hydroxyandrostan-17-one oxime in sesame oil was administered by subcutaneous injections in the back of the rats, once daily. Two different sets of experiments were performed in hyperammonemic rats. In the first set four groups of rats were used: 1) control rats injected with vehicle; 2) hyperammonemic rats injected with vehicle; 3) control rats injected with 20 mg/Kg of 3α-ethynyl-3β-hydroxyandrostan-17-one oxime and 4) hyperammonemic rats injected with 20 mg/Kg of 3α-ethynyl-3β-hydroxyandrostan-17-one oxime.
For the experiments using PCS rats, the following groups of rats were used: 1) Sham rats injected with vehicle; 2) PCS rats injected with vehicle; 3-4) PCS rats injected with 0.7 or 2.5 mg/Kg of 3α-ethynyl-3β-hydroxyandrostan-17-one oxime. The number of rats used in each experiment is either shown in the corresponding Figure or given in the description of the corresponding Figure.
(§5) Blood ammonia was measured using the kit II Ammonia Arkray test (PocketChem BA, Arkray) using 20 μL of fresh blood following manufacturer's specifications.

Data set [2] in a line: Exposure in plasma and brain tissue, hyperammonemic rats (Example 13). The note with it: for Total concentration in plasma: at the time for behavioral testing. The procedure: (§6) Male Wistar rats (140-160 g) were made hyperammonemic by feeding them a diet containing ammonium acetate (30% by weight) (Felipo et al, European Journal of Biochemistry, 1988, 176, 567-571).
as §4
In the second set of experiments five groups of rats were used: 1) control rats injected with vehicle; 2) hyperammonemiac rats injected with vehicle and 3-5) hyperammonemic rats injected with 3, 10 or 20 mg/Kg of 3α-ethynyl-3β-hydroxyandrostan-17-one oxime. In each experiment 6-8 rats per group were used.
At the end of the treatment period plasma was collected from the tail vein, and after sacrifice by decapitation brains were collected and immediately frozen on dry ice. For analysis of 3α-ethynyl-3β-hydroxyandrostan-17-one oxime exposure, brain tissue was homogenized with a 1:4 ratio of tissue: PBS (pH 7.4) and then extracted with a 2-fold volume of methanol:acetonitrile (1:1), while plasma was protein-precipitated with a 3-fold volume with acetonitrile. Analyses were performed by Waters ACQUITY UPLC+Waters XEVO-TQS triple quadrupole mass spectrometer (Admescope Oy, Oulu, Finland). For calculations of the amount of free 3α-ethynyl-3β-hydroxyandrostan-17-one oxime exposure in the brain the fraction unbound (Fb) in brain homogenates were determined by dialysis, Fub in HA=[…] and Fub in PCS=1.43% (Admescope Oy, Oulu, Finland).

The next data set relates to hyperammonemic rats. Briefly: Beam walking test, hyperammonemic rats (Example 8). The procedure: as §6, §3
Motor coordination was tested as described by Gonzalez-Usano et al (ACS Chemical Neuroscience, 2014, 19, 5(2), 100-105) using a wooden beam (20 mm diameter). Rats were made to traverse a one-meter-long wooden beam located approximately one meter above the ground, and the number of foot faults (slips) was recorded by two observers. The rats were trained for the test by being made to traverse the beam up to five times before measurements were recorded. […]

Data set [3] concerns blood ammonia. Briefly: Blood ammonia, hyperammonemic rats (Example 12). The note with it: 20 mg/Kg. The procedure:
as §6, §4, §5

Data set [4] deals with blood ammonia. The data set can be described thus: Ammonia determination in blood (Example 5). An excerpt: The study was divided into two series with animals (male Wistar rats), each series included the following groups; Controls treated with vehicle (CV, n=8 per series), Controls treated with 3α-ethynyl-3β-hydroxyandrostan-17-one oxime (C+GAM, n=8 per series), hyperammonemic rats treated with vehicle (HAV, n=8 per series), hyperammonemic rats treated with 3α-ethynyl-3β-hydroxyandrostan-17-one oxime (HA+GAM, n=8 per series). The once daily treatment with 3α-ethynyl-3β-hydroxyandrostan-17-one oxime at 20 mg/kg or with vehicle was performed with subcutaneous injections of 1 ml/kg around 9 a.m. Treatment started one week after starting with the ammonium containing diet and continued for the whole experimental period.
Blood was obtained from the tail of the rats (from Example 2) in the end of second week of ammonia treatment and first week of 3α-ethynyl-3β-hydroxyandrostan-17-one oxime treatment and also from the neck during the animal sacrifice. To obtain the plasma it was added EDTA […] and centrifuged at 1500 r.p.m during 5 minutes.
Ammonia concentration in blood samples was measured using the Pocket chem BA (Woodley Equipment Company Ltd, United Kingdom), an ammonia analyzer. The device enables immediate testing and delivers results in 3 minutes and 20 s. It also eliminates the need for pre-processes such as centrifugal separation.

As to `C#C[C@]1(O)CC[C@@]2(C)C(CC[C@@H]3[C@@H]2CC[C@]2(C)/C(=N\O)CC[C@@H]32)C1` (stereo partly drawn) [3α-ethynyl-3β-hydroxyandrostan-17-one oxime], the “Percentage of time spent in the correct quadrant, Morris water maze memory test” value with PCS rats (0.7 mg/kg) stood at 34±4%; in the data set on PCS rats (2.5 mg/kg), 39±3%. Further, the Blood ammonia with blood ammonia [1] (0.7 mg/Kg) worked out at 302 ± 30 µM; with blood ammonia [1] (2.5 mg/Kg), 294 ± 37 µM. The results for the “Unbound concentration in the brain tissue” value in data set [2] (3 mg/Kg s.c. once daily), in data set [2] (10 mg/Kg s.c. once daily) and in data set [2] (20 mg/Kg s.c. once daily) were 6.1 ± 1.4 nmol/kg, 11.6 ± 1.4 nmol/kg and 23 ± 5 nmol/kg, respectively. For the same compound, the “Total concentration in plasma” value in data set [2] (3 mg/Kg s.c. once daily) worked out at 0.34 ± 0.03 µM; in data set [2] (10 mg/Kg s.c. once daily), 1.08 ± 0.11 µM; in data set [2] (20 mg/Kg s.c. once daily) it was 1.95 ± 0.61 µM. Further, the “Number of slips, beam walking test” value in the data set on hyperammonemic rats (3 mg/kg s.c. once daily) was determined as 0.8±0.1 slips; in the data set on hyperammonemic rats (20 mg/kg s.c. once daily), 0.78±0.07 slips. Also, the Blood ammonia levels in the data set on blood ammonia [3] stood at 139 ± 14 µM; in the data set on blood ammonia [4] (control rats treated with 20 mg/kg s.c. once daily), 55 ± 7 µM; with blood ammonia [4] (hyperammonemic rats treated with 20 mg/kg s.c. once daily), 139 ± 15 µM.

These data come from patent US10342804B2, “Steroid compound for use in the treatment of hepatic encephalopathy” (Umecrine Cognition AB, priority 2014, dated 2019).
